Measurements from patent US11827917B1, “Methods for the conversion of fermentable sugars to ethanol” (Colorado State University Research Foundation, priority 2020, dated 2023).
“Also recorded” adds a separate entry of the source. Marks after values point to notes of the source that are not given here.

Experiments:
Format in all cases: cell-based, Saccharomyces cerevisiae
S. cerevisiae JAY 270 = assay: Screening of growth in 24-well plates on YPDA; conditions: for Cell growth score (colony size): YPDA, 30° C., 24 h
Description: Procedure: An inoculum culture of S. cerevisiae JAY 270 was grown in 100 mL of yeast extract-peptone-dextrose (YPD) medium (10 g/L yeast extract, 20 g/L peptone, 20 g/L glucose) in 200-mL serum bottles overnight in a shaker at 30° C. and 200 rpm. The cells were collected by centrifuging 10 min at 4000×g and 4° C. To wash off the medium residue, the cell pellet was resuspended in 30 mL of sterile 0.8% (w/v) NaCl solution and centrifuged at 4000×g for 10 min. The cell pellet was washed twice. Finally, the cell pellet was resuspended and diluted in 0.8% (w/v) NaCl to achieve cell concentrations of OD600=0.02 and 0.2.
The eight compounds were added in YPDA separately at 0.03%, 0.05%, 0.1%, and 0.2% (w/v). The standard control treatment contained only YPDA medium without addition of these compounds. Since the TrpOH and TyrOH stock solutions were dissolved in DMSO, the controls for those tests were YPDA with the same concentration of DMSO. A 3-mL aliquot of YPDA medium with or without the test compounds were loaded in each well of the 24-well plate.
Ten μL of the prepared S. cerevisiae JAY 270 cell suspension at OD600=0.02 or 0.2 was loaded onto the YPDA medium in each well of the 24-well plates. Then the plates were sealed with Parafilm and incubated at 30° C. for 24 h. There were four biological replicates for each treatment.
Yeast cell growth was evaluated by visual observation of the colony size in the well and scored as 0, +, ++, and +++.

S. cerevisiae JAY 238 = assay: Serum-bottle cultivation in YPD, different yeast strains; conditions: 0.2%
Description: (§1) Analytical methods: Cell growth was evaluated by monitoring OD600 and cell dry mass concentration. For dry mass measurements, 1.0 mL of culture was transferred to a pre-dried and pre-weighed 2-mL centrifuge tube. The tubes were centrifuged for 10 min at 14000 rpm using a microcentrifuge, and then the cell pellets were dried in an oven for 3 days at 65° C. The cell dry mass was determined by subtracting the initial tube mass from the dried mass of tube with cells. The concentrations of glucose, ethanol, and glycerol were measured via HPLC (Shimadzu LC20A series) outfitted with a refractive index detector and using an Aminex HPX-87H (300×7.8 mm) organic acid column and Cation H+ guard cartridge (Bio Rad Laboratories, Hercules, CA). The column was maintained at 65° C. and the mobile phase was 5 mM sulfuric acid with a flow rate of 0.6 mL/min. Standard compound solutions were used to calibrate the HPLC. Each sample was analyzed three times by HPLC.
(§2) Procedure: Seven yeast strains (S. cerevisiae ATCC 26603, S. cerevisiae JAY 238, S. cerevisiae JAY 240, S. cerevisiae JAY 241, S. paradoxus JAY 1502, S. kudriavzezii JAY 1503, and S. mikatae JAY 1504) were pre-cultured in 30 mL of YPD medium in 100 mL serum bottle overnight in a shaker at 30° C. and 200 rpm. The precultured yeast cells of each strains were collected and washed twice. Finally, the cell pellet was resuspended in about 10 mL 0.8% (w/v) NaCl and the OD600 measured. TyrOH, PheOH, and TrpOH were added to 30 mL of YPD medium in 100-mL serum bottles at 0.2% (w/v) respectively. The same amount of DMSO was added in YPD medium and served as control to the TrpOH and TyrOH treatments. The prepared yeast cells were added to obtain the initial cell concentration at OD600=0.2. The serum bottles were sealed and cultured in a shaker at 30° C. and 200 rpm for 24 h. There were three biological replicates for each treatment.

S. cerevisiae ATCC 26603 = assay: as above; conditions: 0.2%
Description: as §1, §2

S. cerevisiae JAY 241 = assay: as above; conditions: 0.2%
Description: as §1, §2

S. cerevisiae JAY 240 = assay: as above; conditions: 0.2%
Description: as §1, §2

[1] = S. cerevisiae JAY 238, YPD (Table 9B)
[2] = S. cerevisiae ATCC 26603, YPD (Table 9B)
[3] = S. cerevisiae JAY 241, YPD (Table 9B)
[4] = S. cerevisiae JAY 240, YPD (Table 9B)

OCCc1ccccc1 [PheOH, 2-phenylethanol]
Cell growth score (colony size) (S. cerevisiae JAY 270; 0.03% (w/v)): +++
Cell growth score (colony size) (S. cerevisiae JAY 270; 0.05% (w/v)): +++
Cell growth score (colony size) (S. cerevisiae JAY 270; 0.10% (w/v)): ++
Cell growth score (colony size) (S. cerevisiae JAY 270; 0.20% (w/v)): +
Concentration at which cell growth was reduced in the plate assay (S. cerevisiae JAY 270; molar equivalent of the % w/v value): 8.2 mM
Effect on cell growth in the plate assay (words) (S. cerevisiae JAY 270; tested concentrations, 24-well plates): inhibited growth; also recorded: reduced the growth
Biomass Yield (S. cerevisiae JAY 238; S. cerevisiae JAY 238): 0.059 ± 0.000 g/g
Biomass yield % change vs. control (S. cerevisiae JAY 238; S. cerevisiae JAY 238): −19* %
EtOH yield (S. cerevisiae JAY 238; S. cerevisiae JAY 238): 0.472 ± 0.017 g/g
Glycerol yield (S. cerevisiae JAY 238; S. cerevisiae JAY 238): 0.041 ± 0.002 g/g
Glycerol yield % change vs. control (S. cerevisiae JAY 238; S. cerevisiae JAY 238): −0.2%
DCW (S. cerevisiae JAY 238; S. cerevisiae JAY 238, YPD): 2.00 mg
DCW Δ vs. ref (S. cerevisiae JAY 238; S. cerevisiae JAY 238, YPD): 78.4%
OD600 Δ vs. ref (S. cerevisiae JAY 238; S. cerevisiae JAY 238, YPD): 65.9%
Biomass Yield (S. cerevisiae JAY 238; [1]): 0.059 + 0.000 g/g
Biomass yield Δ vs. ref (S. cerevisiae JAY 238; [1]): −18.9%
Ethanol yield (S. cerevisiae JAY 238; [1]): 0.472 ± 0.017 g/g
Ethanol yield Δ vs. ref (S. cerevisiae JAY 238; [1]): 9.3%
Glycerol yield (S. cerevisiae JAY 238; [1]): 0.041 ± 0.002 g/g
Glycerol yield Δ vs. ref (S. cerevisiae JAY 238; [1]): −0.22%
Biomass Yield (S. cerevisiae ATCC 26603; S. cerevisiae ATCC 26603): 0.052 ± 0.001 g/g
Biomass yield % change vs. control (S. cerevisiae ATCC 26603; S. cerevisiae ATCC 26603): −22* %
EtOH yield (S. cerevisiae ATCC 26603; S. cerevisiae ATCC 26603): 0.453 ± 0.006 g/g
EtOH yield % change vs. control (S. cerevisiae ATCC 26603; S. cerevisiae ATCC 26603): +1.2%
Glycerol yield (S. cerevisiae ATCC 26603; S. cerevisiae ATCC 26603): 0.054 ± 0.001 g/g
Glycerol yield % change vs. control (S. cerevisiae ATCC 26603; S. cerevisiae ATCC 26603): −25* %
DCW (S. cerevisiae ATCC 26603; S. cerevisiae ATCC 26603, YPD): 1.40 mg
DCW Δ vs. ref (S. cerevisiae ATCC 26603; S. cerevisiae ATCC 26603, YPD): 76.4%
OD600 (S. cerevisiae ATCC 26603; S. cerevisiae ATCC 26603, YPD): 1.27
OD600 Δ vs. ref (S. cerevisiae ATCC 26603; S. cerevisiae ATCC 26603, YPD): 85.6%
Biomass Yield (S. cerevisiae ATCC 26603; [2]): 0.052 + 0.001 g/g
Biomass yield Δ vs. ref (S. cerevisiae ATCC 26603; [2]): −22.3%
Ethanol yield (S. cerevisiae ATCC 26603; [2]): 0.453 ± 0.006 g/g
Ethanol yield Δ vs. ref (S. cerevisiae ATCC 26603; [2]): 1.2%
Glycerol yield (S. cerevisiae ATCC 26603; [2]): 0.054 ± 0.001 g/g
Glycerol yield Δ vs. ref (S. cerevisiae ATCC 26603; [2]): −25.07%
Biomass Yield (S. cerevisiae JAY 241; S. cerevisiae JAY 241): 0.042 ± 0.001 g/g
Biomass yield % change vs. control (S. cerevisiae JAY 241; S. cerevisiae JAY 241): −28* %
EtOH yield (S. cerevisiae JAY 241; S. cerevisiae JAY 241): 0.399 ± 0.003 g/g
Glycerol yield (S. cerevisiae JAY 241; S. cerevisiae JAY 241): 0.037 ± 0.002 g/g
Glycerol yield % change vs. control (S. cerevisiae JAY 241; S. cerevisiae JAY 241): −31* %
DCW (S. cerevisiae JAY 241; S. cerevisiae JAY 241, YPD): 2.10 mg
DCW Δ vs. ref (S. cerevisiae JAY 241; S. cerevisiae JAY 241, YPD): 80.8%
OD600 (S. cerevisiae JAY 241; S. cerevisiae JAY 241, YPD): 1.45
OD600 Δ vs. ref (S. cerevisiae JAY 241; S. cerevisiae JAY 241, YPD): 69.9%
Biomass Yield (S. cerevisiae JAY 241; [3]): 0.042 + 0.001 g/g
Biomass yield Δ vs. ref (S. cerevisiae JAY 241; [3]): −27.9%
Ethanol yield (S. cerevisiae JAY 241; [3]): 0.399 ± 0.003 g/g
Ethanol yield Δ vs. ref (S. cerevisiae JAY 241; [3]): 0.4%
Glycerol yield (S. cerevisiae JAY 241; [3]): 0.037 ± 0.002 g/g
Glycerol yield Δ vs. ref (S. cerevisiae JAY 241; [3]): −31.00%
Biomass Yield (S. cerevisiae JAY 240; S. cerevisiae JAY 240): 0.060 ± 0.000 g/g
Biomass yield % change vs. control (S. cerevisiae JAY 240; S. cerevisiae JAY 240): −19* %
EtOH yield (S. cerevisiae JAY 240; S. cerevisiae JAY 240): 0.448 ± 0.018 g/g
EtOH yield % change vs. control (S. cerevisiae JAY 240; S. cerevisiae JAY 240): +8.2* %
Glycerol yield (S. cerevisiae JAY 240; S. cerevisiae JAY 240): 0.038 ± 0.002 g/g
Glycerol yield % change vs. control (S. cerevisiae JAY 240; S. cerevisiae JAY 240): +2.2%
DCW (S. cerevisiae JAY 240; S. cerevisiae JAY 240, YPD): 2.20 mg
DCW Δ vs. ref (S. cerevisiae JAY 240; S. cerevisiae JAY 240, YPD): 78.6%
OD600 (S. cerevisiae JAY 240; S. cerevisiae JAY 240, YPD): 1.89
OD600 Δ vs. ref (S. cerevisiae JAY 240; S. cerevisiae JAY 240, YPD): 72.2%
Biomass Yield (S. cerevisiae JAY 240; [4]): 0.060 + 0.000 g/g
Biomass yield Δ vs. ref (S. cerevisiae JAY 240; [4]): −19.1%
Ethanol yield (S. cerevisiae JAY 240; [4]): 0.448 ± 0.018 g/g
Ethanol yield Δ vs. ref (S. cerevisiae JAY 240; [4]): 8.2%
Glycerol yield (S. cerevisiae JAY 240; [4]): 0.038 ± 0.002 g/g
Glycerol yield Δ vs. ref (S. cerevisiae JAY 240; [4]): 2.20%
